In PMC11010885, “Functional Analysis and Tissue-Specific Expression of Calcitonin and CGRP with RAMP-Modulated Receptors CTR and CLR in Chickens” (Animals : an Open Access Journal from MDPI, 2024):
“Also recorded” adds a separate entry of the source.

Tests used:
Type in all cases: cell-based
chicken CLR + RAMP3 [1] = experiment: MAPK/ERK pGL4-SRE-luciferase reporter assay, CLR + RAMP3 in CHO cells; details: 10^−12 M to 10^−6 M, 6 h, mean ± SEM, n = 3, read-out: EC50, MAPK/ERK signaling pathway
Method: (§1) Chinese hamster ovary (CHO) cells were cultured in Dulbecco’s modified Eagle’s medium (DMEM) supplemented with 10% (vol/vol) fetal bovine serum (HyClone, Logan, UT, USA), 100 U/mL penicillin G and 100 μg/mL streptomycin. The cells were maintained in a 90 mm culture dish (Nunc, Rochester, NY, USA) and incubated at 37 °C with 5% CO2. To investigate the signaling pathways associated with each receptor in CHO cells, three different reporter systems (pGL3-CRE-luciferase, pGL4-SRE-luciferase, and pGL3-NFAT-RE-luciferase) were utilized to monitor intracellular cAMP/PKA and MAPK/ERK signaling pathways and calcium mobilization of the activated receptors, respectively.
(§2) Prior to the transfection procedure, the cells were initially cultured in 6-well plates (Nunc, Rochester, NY, USA), maintaining a seeding density of approximately 300,000 cells per well. Upon achieving approximately 70% confluence, the cells underwent a co-transfection process. […] The fluorescence activity of the luciferase in each treatment group was measured using a multimode microplate reader (TriStar LB941, Berthold Technologies, Bad Wildbad, Germany). Finally, the fluorescence activity of each treatment group was expressed as a relative increase ratio compared to the control group.

chicken CTR [2] = experiment: Calcium pGL3-NFAT-RE-luciferase reporter assay, CTR + pcDNA in CHO cells; details: 10^−12 M to 10^−6 M, 6 h, mean ± SEM, n = 3, read-out: EC50, calcium signaling pathway
Method: as §1, §2

chicken CTR + RAMP1 = experiment: Calcium pGL3-NFAT-RE-luciferase reporter assay, CTR + RAMP1 in CHO cells; details: 10^−12 M to 10^−6 M, 6 h, mean ± SEM, n = 3, read-out: EC50, calcium signaling pathway
Method: as §1, §2

chicken CTR + RAMP2 = experiment: Calcium pGL3-NFAT-RE-luciferase reporter assay, CTR + RAMP2 in CHO cells
Method: as §1
(§3) Prior to the transfection procedure, the cells were initially cultured in 6-well plates (Nunc, Rochester, NY, USA), maintaining a seeding density of approximately 300,000 cells per well. Upon achieving approximately 70% confluence, the cells underwent a co-transfection process. This procedure entailed the introduction of 700 ng of various luciferase reporter constructs (namely, pGL3-CRE-luciferase, pGL4-SRE-luciferase, or pGL3-NFAT-RE-luciferase) combined with 200 ng of a specific receptor plasmid (CTR or CLR) and 1000 ng of either RAMP1, RAMP2, RAMP3 expression plasmids, or alternatively, the empty pcDNA3.1 (+) vector. A volume of 5.7 μL of PEI MAX was used in 200 μL of buffer following the manufacturer’s protocol. After 24 h of incubation, the transfected CHO cells were subcultured in 96-well plates and passaged for an additional 24 h before peptide treatment. Then, the medium from the 96-well plates was removed, and the cells were treated with chicken CT/CGRP-containing medium (or untreated medium as a control) at concentrations ranging from 10^−12 M to 10^−6 M for 6 h. […] The fluorescence activity of the luciferase in each treatment group was measured using a multimode microplate reader (TriStar LB941, Berthold Technologies, Bad Wildbad, Germany). Finally, the fluorescence activity of each treatment group was expressed as a relative increase ratio compared to the control group.

chicken CTR + RAMP3 = experiment: Calcium pGL3-NFAT-RE-luciferase reporter assay, CTR + RAMP3 in CHO cells; details: 10^−12 M to 10^−6 M, 6 h, mean ± SEM, n = 3, read-out: EC50, calcium signaling pathway
Method: as §1, §2

chicken CLR + RAMP1 = experiment: Calcium pGL3-NFAT-RE-luciferase reporter assay, CLR + RAMP1 in CHO cells; details: 10^−12 M to 10^−6 M, 6 h, mean ± SEM, n = 3, read-out: EC50, calcium signaling pathway
Method: as §1, §2

chicken CLR + RAMP2 = experiment: Calcium pGL3-NFAT-RE-luciferase reporter assay, CLR + RAMP2 in CHO cells
Method: as §1, §3

chicken CLR + RAMP3 [3] = experiment: Calcium pGL3-NFAT-RE-luciferase reporter assay, CLR + RAMP3 in CHO cells; details: 10^−12 M to 10^−6 M, 6 h, mean ± SEM, n = 3, read-out: EC50, calcium signaling pathway
Method: as §1, §2

chicken CTR [4] = experiment: Western blot CREB phosphorylation, CTR in CHO cells; details: 10 nM, 10 min, n = 3
Method: (§4) To assess whether the activation of chicken CTR and CLR, along with the presence of RAMPs, can augment the phosphorylation levels of cAMP response element-binding protein (CREB), 200 ng of CTR or CLR expression plasmids were combined with 1000 ng of chicken RAMPs or an empty pcDNA3.1 (+) vector in a 100 μL buffer. The resulting mixture was then transfected into CHO cells in a 12-well plate (Nunc, Rochester, NY, USA) using 3.6 μL of PEI MAX transfection reagent. After a 24 h incubation period, the cells were exposed to chicken CT (10 nM) or CGRP (10 nM) for 10 min. Subsequently, the culture medium was removed, and the cells were lysed according to the manufacturer’s instructions. Western blot analysis was performed to quantify the levels of CREB and phosphorylated CREB (p-CREB). The optical densities were analyzed and normalized using the software, ImageJ 1.52a (National Institutes of Health, Bethesda, MD, USA). The relative expression of p-CREB/CREB was determined by calculating the ratio of the optical density to that of the control without peptide treatment (0 min).

chicken CTR + RAMPs = experiment: Western blot CREB phosphorylation, CTR + RAMPs in CHO cells; details: 10 nM, 10 min, n = 3
Method: as §4

chicken CLR = experiment: Western blot CREB phosphorylation, CLR in CHO cells; details: 10 nM, 10 min, n = 3
Method: as §4

chicken CLR + RAMPs = experiment: Western blot CREB phosphorylation, CLR + RAMPs in CHO cells; details: 10 nM, 10 min, n = 3
Method: as §4

[5] = test system: chicken CTR in the absence or presence of RAMPs; experiment: cAMP/PKA pGL3-CRE-luciferase reporter assay, CTR without and with RAMPs compared; details: CHO cells, pGL3-CRE-luciferase
Method: as §1, §3

[6] = test system: chicken CLR in the absence or presence of RAMPs; experiment: cAMP/PKA pGL3-CRE-luciferase reporter assay, CLR without and with RAMPs compared
Method: as §1
Prior to the transfection procedure, the cells were initially cultured in 6-well plates (Nunc, Rochester, NY, USA), maintaining a seeding density of approximately 300,000 cells per well. Upon achieving approximately 70% confluence, the cells underwent a co-transfection process. This procedure entailed the introduction of 700 ng of various luciferase reporter constructs (namely, pGL3-CRE-luciferase, pGL4-SRE-luciferase, or pGL3-NFAT-RE-luciferase) combined with 200 ng of a specific receptor plasmid (CTR or CLR) and 1000 ng of either RAMP1, RAMP2, RAMP3 expression plasmids, or alternatively, the empty pcDNA3.1 (+) vector. A volume of 5.7 μL of PEI MAX was used in 200 μL of buffer following the manufacturer’s protocol. After 24 h of incubation, the transfected CHO cells were subcultured in 96-well plates and passaged for an additional 24 h before peptide treatment. Then, the medium from the 96-well plates was removed, and the cells were treated with chicken CT/CGRP-containing medium (or untreated medium as a control) at concentrations ranging from 10^−12 M to 10^−6 M for 6 h. Subsequently, the cells were harvested for luciferase assays by lysing them in 1 × passive lysis buffer. To measure the luciferase activity of the cell lysate, 40 μL of luciferase assay reagent (Promega, Madison, WI, USA) was mixed with the cell lysate following the manufacturer’s instructions. The fluorescence activity of the luciferase in each treatment group was measured using a multimode microplate reader (TriStar LB941, Berthold Technologies, Bad Wildbad, Germany). Finally, the fluorescence activity of each treatment group was expressed as a relative increase ratio compared to the control group.

calcitonin [CT]
EC50 (chicken CLR + RAMP3 [1]): 1 ± 0.45 nM | EC50 (chicken CTR [2]): 61.1 ± 8.55 nM | EC50 (chicken CTR + RAMP1): > 100 nM | EC50 (chicken CTR + RAMP2; CTR + RAMP2, CHO cells, pGL3-NFAT-RE-luciferase, 10^−12 M to 10^−6 M, 6 h, mean ± SEM, n = 3, read-out: EC50, calcium signaling pathway): 2.5 ± 1.81 nM | elevation in luciferase activity, calcium signaling (chicken CTR + RAMP2; CTR + RAMP2, pGL3-NFAT-RE-luciferase, CHO cells): modest elevation in luciferase activity | EC50 (chicken CTR + RAMP3): > 100 nM | EC50 (chicken CLR + RAMP1): 5.81 ± 5.75 nM | EC50 (chicken CLR + RAMP2; CLR + RAMP2, CHO cells, pGL3-NFAT-RE-luciferase, 10^−12 M to 10^−6 M, 6 h, mean ± SEM, n = 3, read-out: EC50, calcium signaling pathway): 1.52 ± 1.32 nM | elevation in luciferase activity, calcium signaling (chicken CLR + RAMP2; CLR + RAMP2, pGL3-NFAT-RE-luciferase, CHO cells): modest elevation in luciferase activity | EC50 (chicken CLR + RAMP3 [3]): 32.3 ± 30.3 nM | CREB phosphorylation (p-CREB/CREB vs. control, 0 min) (chicken CTR [4]): significantly increased the CREB phosphorylation | CREB phosphorylation (p-CREB/CREB vs. control, 0 min) (chicken CTR + RAMPs): significantly increased the CREB phosphorylation | CREB phosphorylation (p-CREB/CREB vs. control, 0 min) (chicken CLR): significantly enhanced the CREB phosphorylation | CREB phosphorylation (p-CREB/CREB vs. control, 0 min) (chicken CLR + RAMPs): significantly enhanced the CREB phosphorylation | effect of RAMP co-expression on sensitivity of CTR [5]: does not markedly influence the sensitivity of chicken CTR for CT; also recorded: a slight decrease in sensitivity towards CT | effect of RAMP co-expression on sensitivity of CLR ([6]; CHO cells, pGL3-CRE-luciferase): a slight reduction in chicken CLR’s sensitivity to CT in the presence of RAMP1 | rank order of receptor sensitivity ([6]; CLR without/with RAMPs): CLR ≈ CLR + RAMP2 ≈ CLR + RAMP3 > CLR + RAMP1 | EC50 ([6]; CLR without/with RAMPs, read-out: EC50 range over CLR, CLR + RAMP2, CLR + RAMP3, CLR + RAMP1): 0.75 to 3.3 nM
